Drawing on patent publication US20260297081A1, “COMPOUNDS AND METHODS OF TREATING CANCERS” (Cullgen Inc., priority 2023, published 2026), this text covers inhibition for 16 compounds.

In the experiment the target is CDK4 (Homo sapiens, UniProt P11802+Q16531). The experiment can be described thus: CDK4 percentage degradation in Calu-1 cells (Table 6). Conditions: 16 hours; for inhibition at 0.04 µM: 40 nM; for inhibition at 0.2 µM: 200 nM. The experiment is classed as cell-based. Also on record: Cells that express cyclin D1-3 and CDK4/6 proteins were treated with heterobifunctional compounds; endogenous in cells; host or cells: Calu-1. The method in brief: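 Calu-1 cells exposed to heterobifunctional compounds at 40 nM or 200 nM for 16 h. Cyclin D1 and CDK4 levels measured by Western blot of RIPA lysates (BCA-normalised loading), bands quantified by densitometry and expressed as percentage degradation.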
CDK4, sequence (P11802 2-303 limits assumed): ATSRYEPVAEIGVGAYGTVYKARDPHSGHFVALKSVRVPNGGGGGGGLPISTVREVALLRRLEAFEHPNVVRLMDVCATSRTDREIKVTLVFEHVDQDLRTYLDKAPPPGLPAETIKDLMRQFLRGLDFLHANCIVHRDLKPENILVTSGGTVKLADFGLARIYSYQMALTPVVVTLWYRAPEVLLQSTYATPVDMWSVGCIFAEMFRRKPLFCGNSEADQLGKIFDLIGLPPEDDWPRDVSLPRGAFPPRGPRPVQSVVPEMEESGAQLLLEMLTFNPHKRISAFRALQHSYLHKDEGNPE
CDK4, sequence (P24385 whole entry partner): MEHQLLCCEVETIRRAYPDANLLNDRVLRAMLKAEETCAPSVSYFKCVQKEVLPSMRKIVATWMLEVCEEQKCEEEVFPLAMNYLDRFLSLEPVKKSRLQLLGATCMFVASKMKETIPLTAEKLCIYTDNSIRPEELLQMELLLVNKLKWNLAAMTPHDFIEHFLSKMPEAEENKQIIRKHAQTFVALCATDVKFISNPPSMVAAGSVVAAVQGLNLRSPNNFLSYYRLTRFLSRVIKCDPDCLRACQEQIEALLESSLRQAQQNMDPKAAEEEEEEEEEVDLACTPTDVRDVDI
CDK4, sequence (Q16531 2-1140 limits assumed): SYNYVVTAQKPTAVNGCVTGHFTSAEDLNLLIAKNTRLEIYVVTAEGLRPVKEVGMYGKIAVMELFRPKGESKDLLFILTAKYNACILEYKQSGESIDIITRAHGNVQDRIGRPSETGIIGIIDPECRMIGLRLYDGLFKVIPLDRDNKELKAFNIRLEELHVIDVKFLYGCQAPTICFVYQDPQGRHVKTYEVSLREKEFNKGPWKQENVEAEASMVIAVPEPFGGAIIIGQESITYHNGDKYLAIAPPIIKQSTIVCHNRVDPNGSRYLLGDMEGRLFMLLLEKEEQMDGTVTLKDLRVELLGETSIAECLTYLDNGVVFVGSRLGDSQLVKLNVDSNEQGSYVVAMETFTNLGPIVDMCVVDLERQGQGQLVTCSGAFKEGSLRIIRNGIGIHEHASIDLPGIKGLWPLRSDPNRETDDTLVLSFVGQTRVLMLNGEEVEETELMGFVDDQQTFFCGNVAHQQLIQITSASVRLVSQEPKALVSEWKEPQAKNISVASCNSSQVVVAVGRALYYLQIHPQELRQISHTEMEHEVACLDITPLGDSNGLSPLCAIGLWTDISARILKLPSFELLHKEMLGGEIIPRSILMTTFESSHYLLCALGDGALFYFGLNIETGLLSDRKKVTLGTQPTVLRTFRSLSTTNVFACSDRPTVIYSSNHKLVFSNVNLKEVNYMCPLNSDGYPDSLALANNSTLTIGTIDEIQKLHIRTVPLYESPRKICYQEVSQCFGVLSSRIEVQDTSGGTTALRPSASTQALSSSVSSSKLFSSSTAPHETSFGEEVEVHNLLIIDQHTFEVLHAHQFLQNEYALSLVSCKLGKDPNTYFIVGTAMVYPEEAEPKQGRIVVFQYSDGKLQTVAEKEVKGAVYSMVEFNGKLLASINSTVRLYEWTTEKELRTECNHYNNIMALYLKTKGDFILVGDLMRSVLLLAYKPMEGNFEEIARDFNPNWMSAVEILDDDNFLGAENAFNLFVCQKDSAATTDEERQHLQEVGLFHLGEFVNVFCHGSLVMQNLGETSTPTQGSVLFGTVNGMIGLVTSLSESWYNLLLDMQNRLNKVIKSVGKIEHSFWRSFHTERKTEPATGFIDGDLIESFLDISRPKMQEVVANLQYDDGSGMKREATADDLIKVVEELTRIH

`CNc1ccc(C(=O)Nc2cc(C)n(C)n2)c(NC2CC3(CC(NC(=O)CN4CCN(c5ccc(Nc6ncc7c(C)c(C(C)=O)c(=O)n(C8CCCC8)c7n6)nc5)CC4)C3)C2)n1` (centres unmarked) [CPD-70, 2-((6-(2-(4-(6-((6-Acetyl-8-cyclopentyl-5-methyl-7-oxo-7,8-dihydropyrido[2,3-d]pyrimidin-2-yl)amino)pyridin-3-yl)piperazin-1-yl)acetamido)spiro[3.3]heptan-2-yl)amino)-N-(1,5-dimethyl-1H-pyrazol-3-yl)-6-(methylamino)nicotinamide] showed an inhibition at 0.04 µM of 50 to 80% and an inhibition at 0.2 µM of 50 to 80%.

`CNc1ccc(C(=O)Nc2cccc(OC)n2)c(NC2CC3(CC(NC(=O)CN4CCN(c5ccc(Nc6ncc7c(C)c(C(C)=O)c(=O)n(C8CCCC8)c7n6)nc5)CC4)C3)C2)n1` (centres unmarked) [CPD-161, 2-((6-(2-(4-(6-((6-acetyl-8-cyclopentyl-5-methyl-7-oxo-7,8-dihydropyrido[2,3-d]pyrimidin-2-yl)amino)pyridin-3-yl)piperazin-1-yl)acetamido)spiro[3.3]heptan-2-yl)amino)-N-(6-methoxypyridin-2-yl)-6-(methylamino)nicotinamide] returned an inhibition at 0.04 µM of 50 to 80% and an inhibition at 0.2 µM of over 80%.

Compound `CNc1ccc(C(=O)Nc2ccc(C)c(C)n2)c(NC2CC3(CC(NC(=O)CN4CCN(c5ccc(Nc6ncc7c(C)c(C(C)=O)c(=O)n(C8CCCC8)c7n6)nc5)CC4)C3)C2)n1` (centres unmarked) [CPD-182, 2-((6-(2-(4-(6-((6-acetyl-8-cyclopentyl-5-methyl-7-oxo-7,8-dihydropyrido[2,3-d]pyrimidin-2-yl)amino)pyridin-3-yl)piperazin-1-yl)acetamido)spiro[3.3]heptan-2-yl)amino)-N-(5,6-dimethylpyridin-2-yl)-6-(methylamino)nicotinamide] had an inhibition at 0.04 µM of 30 to 50% and an inhibition at 0.2 µM of 30 to 50%.

`CNc1ccc(C(=O)Nc2ccnn2C)c(NC2CC3(CC(NC(=O)CN4CCN(c5ccc(Nc6ncc7c(C)c(C(C)=O)c(=O)n(C8CCCC8)c7n6)nc5)CC4)C3)C2)n1` (centres unmarked) [CPD-153, 2-((6-(2-(4-(6-((6-acetyl-8-cyclopentyl-5-methyl-7-oxo-7,8-dihydropyrido[2,3-d]pyrimidin-2-yl)amino)pyridin-3-yl)piperazin-1-yl)acetamido)spiro[3.3]heptan-2-yl)amino)-N-(1-methyl-1H-pyrazol-5-yl)-6-(methylamino)nicotinamide] came in with an inhibition at 0.04 µM of under 30% and an inhibition at 0.2 µM of under 30%.

`CNc1ccc(C(=O)Nc2ccc(N(C)C)nn2)c(NC2CC(CCCC(=O)N3CCN(c4ccc(Nc5ncc6c(C)c(C(C)=O)c(=O)n(C7CCCC7)c6n5)nc4)CC3)C2)n1` (centres unmarked) [CPD-156, 2-((3-(4-(4-(6-((6-acetyl-8-cyclopentyl-5-methyl-7-oxo-7,8-dihydropyrido[2,3-d]pyrimidin-2-yl)amino)pyridin-3-yl)piperazin-1-yl)-4-oxobutyl)cyclobutyl)amino)-N-(6-(dimethylamino)pyridazin-3-yl)-6-(methylamino)nicotinamide] came in with an inhibition at 0.04 µM of 50 to 80% and an inhibition at 0.2 µM of 50 to 80%.

Regarding `CNc1ccc(C(=O)Nc2ccc(OC)c(C)n2)c(NC2CC3(CC(NC(=O)CN4CCN(c5ccc(Nc6ncc7c(C)c(C(C)=O)c(=O)n(C8CCCC8)c7n6)nc5)CC4)C3)C2)n1` (centres unmarked) [CPD-220, 2-((6-(2-(4-(6-((6-acetyl-8-cyclopentyl-5-methyl-7-oxo-7,8-dihydropyrido[2,3-d]pyrimidin-2-yl)amino)pyridin-3-yl)piperazin-1-yl)acetamido)spiro[3.3]heptan-2-yl)amino)-N-(5-methoxy-6-methylpyridin-2-yl)-6-(methylamino)nicotinamide], the inhibition at 0.04 µM was in the range of 30 to 50% and the inhibition at 0.2 µM lay in the range of 50 to 80%.

With `CNc1ccc(C(=O)Nc2ccc(N(C)C)nn2)c(N[C@H]2CC[C@H](CNC(=O)CN3CCN(c4ccc(Nc5ncc6c(C)c(C(C)=O)c(=O)n(C7CCCC7)c6n5)nc4)CC3)CC2)n1` [CPD-43, 2-((trans-4-((2-(4-(6-((6-Acetyl-8-cyclopentyl-5-methyl-7-oxo-7,8-dihydropyrido[2,3-d]pyrimidin-2-yl)amino)pyridin-3-yl)piperazin-1-yl)acetamido)methyl)cyclohexyl)amino)-N-(6-(dimethylamino)pyridazin-3-yl)-6-(methylamino)nicotinamide], the inhibition at 0.04 µM was under 30% and the inhibition at 0.2 µM is 50 to 80%.

For the compound `CNc1ccc(NC(=O)c2ccc(NC)nc2NCCCCCNC(=O)CN2CCN(c3ccc(Nc4ncc5c(C)c(C(C)=O)c(=O)n(C6CCCC6)c5n4)nc3)CC2)nn1` [CPD-110, 2-((5-(2-(4-(6-((6-Acetyl-8-cyclopentyl-5-methyl-7-oxo-7,8-dihydropyrido[2,3-d]pyrimidin-2-yl)amino)pyridin-3-yl)piperazin-1-yl)acetamido)pentyl)amino)-6-(methylamino)-N-(6-(methylamino)pyridazin-3-yl)nicotinamide], the inhibition at 0.04 µM was under 30% and the inhibition at 0.2 µM lay in the range of 50 to 80%.

As for `COc1ccc(NC(=O)c2ccc(C)nc2NCCCCCCCNC(=O)CN2CCN(c3ccc(Nc4ncc5c(C)c(C(C)=O)c(=O)n(C6CCCC6)c5n4)nc3)CC2)nn1` [CPD-2, 2-((7-(2-(4-(6-((6-acetyl-8-cyclopentyl-5-methyl-7-oxo-7,8-dihydropyrido[2,3-d]pyrimidin-2-yl)amino)pyridin-3-yl)piperazin-1-yl)acetamido)heptyl)amino)-N-(6-methoxypyridazin-3-yl)-6-methylnicotinamide], the inhibition at 0.04 µM is 50 to 80% and the inhibition at 0.2 µM was over 80%.

`CNc1ccc(C(=O)NC2CC(N(C)C)C2)c(NCCCCCNC(=O)CN2CCN(c3ccc(Nc4ncc5c(C)c(C(C)=O)c(=O)n(C6CCCC6)c5n4)nc3)CC2)n1` (centres unmarked) [CPD-64, 2-((5-(2-(4-(6-((6-Acetyl-8-cyclopentyl-5-methyl-7-oxo-7,8-dihydropyrido[2,3-d]pyrimidin-2-yl)amino)pyridin-3-yl)piperazin-1-yl)acetamido)pentyl)amino)-N-(3-(dimethylamino)cyclobutyl)-6-(methylamino)nicotinamide] had an inhibition at 0.04 µM of under 30% and an inhibition at 0.2 µM of under 30%.

For the compound `CNc1ccc(C(=O)Nc2ccc(C(C)C)nn2)c(NCCCCCNC(=O)CN2CCN(c3ccc(Nc4ncc5c(C)c(C(C)=O)c(=O)n(C6CCCC6)c5n4)nc3)CC2)n1` [CPD-15, 2-((5-(2-(4-(6-((6-Acetyl-8-cyclopentyl-5-methyl-7-oxo-7,8-dihydropyrido[2,3-d]pyrimidin-2-yl)amino)pyridin-3-yl)piperazin-1-yl)acetamido)pentyl)amino)-N-(6-isopropylpyridazin-3-yl)-6-(methylamino)nicotinamide], the inhibition at 0.04 µM is under 30% and the inhibition at 0.2 µM was under 30%.

In turn, `[2H]C([2H])([2H])Nc1ccc(C(=O)Nc2ccc(N(C)C)nn2)c(NC2CN(C(=O)C(F)(F)CN3CCN(c4ccc(Nc5ncc6c(C)c(C(C)=O)c(=O)n(C7CCCC7)c6n5)nc4)CC3)C2)n1` [CPD-248, 2-((1-(3-(4-(6-((6-acetyl-8-cyclopentyl-5-methyl-7-oxo-7,8-dihydropyrido[2,3-d]pyrimidin-2-yl)amino)pyridin-3-yl)piperazin-1-yl)-2,2-difluoropropanoyl)azetidin-3-yl)amino)-N-(6-(dimethylamino)pyridazin-3-yl)-6-((methyl-d3)amino)nicotinamide] displayed an inhibition at 0.04 µM of under 30% and an inhibition at 0.2 µM of under 30%.

Turning to `CNc1ccc(C(=O)Nc2ccn(C)n2)c(NC2CC3(CC(NC(=O)CN4CCN(c5ccc(Nc6ncc7c(C)c(C(C)=O)c(=O)n(C8CCCC8)c7n6)nc5)CC4)C3)C2)n1` (centres unmarked) [CPD-93, 2-((6-(2-(4-(6-((6-Acetyl-8-cyclopentyl-5-methyl-7-oxo-7,8-dihydropyrido[2,3-d]pyrimidin-2-yl)amino)pyridin-3-yl)piperazin-1-yl)acetamido)spiro[3.3]heptan-2-yl)amino)-N-(1-methyl-1H-pyrazol-3-yl)-6-(methylamino)nicotinamide], the inhibition at 0.04 µM is 30 to 50% and the inhibition at 0.2 µM was in the range of 50 to 80%.

In turn, `CNc1ccc(C(=O)Nc2ccc(N(C)C)nn2)c(NC2CC3(C2)CN(C(=O)C(C)(C)CN2CCN(c4ccc(Nc5ncc6c(C)c(C(C)=O)c(=O)n(C7CCCC7)c6n5)nc4)CC2)C3)n1` [CPD-118, 2-((2-(3-(4-(6-((6-Acetyl-8-cyclopentyl-5-methyl-7-oxo-7,8-dihydropyrido[2,3-d]pyrimidin-2-yl)amino)pyridin-3-yl)piperazin-1-yl)-2,2-dimethylpropanoyl)-2-azaspiro[3.3]heptan-6-yl)amino)-N-(6-(dimethylamino)pyridazin-3-yl)-6-(methylamino)nicotinamide] registered an inhibition at 0.04 µM of 50 to 80% and an inhibition at 0.2 µM of 50 to 80%.

Compound `CC(=O)c1c(C)c2cnc(Nc3ccc(N4CCN(CC(=O)NC5CC6(C5)CC(Nc5cc(Cl)ccc5C(=O)Nc5cc(C)on5)C6)CC4)cn3)nc2n(C2CCCC2)c1=O` (centres unmarked) [CPD-259, 2-((6-(2-(4-(6-((6-acetyl-8-cyclopentyl-5-methyl-7-oxo-7,8-dihydropyrido[2,3-d]pyrimidin-2-yl)amino)pyridin-3-yl)piperazin-1-yl)acetamido)spiro[3.3]heptan-2-yl)amino)-4-chloro-N-(5-methylisoxazol-3-yl)benzamide] displayed an inhibition at 0.04 µM of under 30% and an inhibition at 0.2 µM of 30 to 50%.

`CNc1ccc(C(=O)Nc2ccccn2)c(NC2CC3(CC(NC(=O)CN4CCN(c5ccc(Nc6ncc7c(C)c(C(C)=O)c(=O)n(C8CCCC8)c7n6)nc5)CC4)C3)C2)n1` (centres unmarked) [CPD-137, 2-((6-(2-(4-(6-((6-Acetyl-8-cyclopentyl-5-methyl-7-oxo-7,8-dihydropyrido[2,3-d]pyrimidin-2-yl)amino)pyridin-3-yl)piperazin-1-yl)acetamido)spiro[3.3]heptan-2-yl)amino)-6-(methylamino)-N-(pyridin-2-yl)nicotinamide] yielded an inhibition at 0.04 µM of 30 to 50% and an inhibition at 0.2 µM of 30 to 50%.

The term inhibition denotes the drop in the measured response relative to a control, in per cent. A high value points to strong suppression.
